For series [1], the system named is P. falciparum transgenic reporter strain NF54-HGL. Nature of the series: Standard membrane feeding assay (transmission blocking, oocysts in mosquito midgut). The series is classed as cell-based. The settings on record: Plasmodium falciparum, NF54, read-out: IC50, transmission of P. falciparum from infected blood into mosquitos (number of oocysts in the mosquito midgut). The procedure: Standard Membrane Feeding Assays (SMFA) were performed using P. falciparum transgenic reporter strain NF54-HGL that expresses a firefly luciferase gene from an hsp70 promoter (Vos et al., 2015, Scientific Reports, 5). Stage V gametocytes were pre-incubated with test compound prior to mosquito feeding. Test compound is dissolved in DMSO to achieve a stock solution of 10 mM that was serially diluted in DMSO to achieve concentrations […] above the final test concentration. Subsequently, 10 μl of diluted compound in DMSO is then added to 990 μl pre-warmed RPMI 1640 medium supplemented with 367 μM hypoxanthine, 25 mM HEPES and 25 mM NaHCO3 (‘incomplete medium’). 40 μl of this intermediate dilution is added to 360 μl of parasite culture and incubated for 48 hrs at 37° C. in Eppendorf tubes, resulting in 0.1% final DMSO concentration. Hereafter, 300 μl of the gametocyte culture/compound mix is added to 180 μl of packed red blood cells and centrifuged for 20 seconds at 10,000×g. […] Mosquitoes are processed for luminescence measurements to determine relative oocyst intensities as described previously (Stone et al., 2014, Journal of Infectious Diseases, 5, 16). Data is analyzed by fitting a four-parameter logistic regression model using maximum likelihood to find the best fit as described previously (Dechering et al., 2017, Scientific Reports, 7, 1) as shown under FIG. 5.

For another series, the system named is malaria infection. The settings on record: human volunteers, single dose of 600 milligrams; cited from earlier work.
The conditions of series [2]: phase 1a clinical trials; cited from earlier work.

SMILES strings stand for the structures.

Take `N#Cc1cc(NC(=O)[C@H]2c3ccccc3C(=O)N(CC(F)(F)F)[C@@H]2c2ccc(OC3CC3)nc2)ccc1F` (single isomer, unassigned) [(1a)]: the half-maximal inhibitory concentration (IC50) in series [1] was found to be 323 nM.
Turning to `N#Cc1cc(NC(=O)[C@H]2c3ccccc3C(=O)N(CC(F)(F)F)[C@@H]2c2cccnc2)ccc1F` [(+) SJ-733, 4-Isoquinolinecarboxamide, N-(3-cyano-4-fluorophenyl)-1,2,3,4-tetrahydro-1-oxo-3-(3-pyridinyl)-2-(2,2,2-trifluoroethyl)-, (3S,4S)-, reference compound], the Parasitological cure entry with malaria infection is listed as “parasitological cure was not achieved”. Besides, the “Metabolite formation in human pharmacokinetic studies” value in series [2] is “significant formation of an inactive N-oxide metabolite”.

These data come from patent US12509439B2, “Anti-malarial agents” (UNIVERSITY OF KENTUCKY RESEARCH FOUNDATION, priority 2020, dated 2025).
